Like-named read-outs stand apart in the source and are kept apart here.
What was measured:
WEE1 kinase enzyme = biological target: T1, WEE1 kinase enzyme (Homo sapiens, UniProt P30291); assay: WEE1 IC50 determination, LanthaScreen Terbium Labeled TR-FRET kinase assay; format: biochemical; settings: WEE1 enzyme 1 nM, ATP 10 μM, 1 h
T1 construct: purchased Invitrogen, Life Technologies, Grand Island, N.Y. PR7373A
Procedure: IC50 values of compounds against WEE1 kinase enzyme were determined by LanthaScreen™ Terbium Labeled TR-FRET assay. Kinase assays were performed in 1× kinase buffer (#PV6135, Invitrogen, Life Technologies, Grand Island, N.Y.) where total reaction volume is 10 μL in low-volume 384-well plates (#4511, Corning). Serially diluted compounds (3-fold) were incubated with WEE1 Enzyme (1 nM) (#PR7373A, Invitrogen, Life Technologies, Grand Island, N.Y.) for 10 min; a mixture of ATP (10 μM) (#A1852, Sigma, St. Louis, Mo.) and fluorescent-PolyGT substrate (200 nM) (#PV3610, Invitrogen, Life Technologies, Grand Island, N.Y.) was added and incubated in dark at room temperature for 1 h. After 1 h, 10 μL stop solution containing terbium labeled antibody (4 nM) (#PV3529, Invitrogen, Life Technologies, Grand Island, N.Y.) and EDTA (#E5134, Sigma, St. Louis, Mo.) (20 mM) in TR-FRET dilution buffer (#PV3574, Invitrogen, Life Technologies, Grand Island, N.Y.) was added. Readings were taken in a Synergy Neo plate reader (BioTek, Winooski, Vt.) at single excitation of 340 nm and dual emission at 495 nm and 520 nm respectively.
The % activity of test samples was calculated as (Sample−Min)*100/(Max−Min). [Max: DMSO control, complete reaction with enzyme & DMSO and Min: No enzyme & DMSO]. […]

As-Pc-1 = assay: Cytotoxicity assay (resazurin) in As-Pc-1 cell line; format: cell-based; settings: Homo sapiens, read-out: As-Pc-1 IC50
Procedure: (§1) A427 (HTB-53; ATCC), a lung epithelial cell line, was seeded in medium (MEM, 41090101; Gibco) at a cell count of 1500 cells per 100 μL per well in a 96 well edge plate (167425; ThermoFisher). Cells were allowed to grow at 37° C. for 24 hr in 5% CO2 environment (culture conditions) in a Nuaire incubator (humidified). Serially diluted test compounds (100 μL) within the desired testing concentration ranges were added to the culture plate and the cells further incubated in culture conditions for 72 hr. The experiment was terminated at the designated incubation time by replacing the medium with 100 μL of 1 mM of resazurin (R7017; Sigma) prepared in culture medium, and the plates were further incubated in culture conditions for 4-6 hr. Fluorescence was recorded using a multimodal plate reader (Biotek Synergy Neo) at an excitation wavelength of 535 nm and emission wavelength of 590 nm to obtain relative fluorescence units. Data were analysed as follows: the background fluorescence (blank containing only medium) value was subtracted from each reading and normalized with the vehicle control (DMSO treated cells) to obtain percent survival/proliferation. […] Potency of compounds in other cell lines (such as A549, As-Pc-1, Panc 10.05, A172, U-87 MG) may be determined in an analogous manner.

U-87 MG = assay: Cytotoxicity assay (resazurin) in U-87 MG cell line; format: cell-based; settings: Homo sapiens, read-out: U-87 MG IC50
Procedure: as §1

T1 sequence (P30291 whole entry): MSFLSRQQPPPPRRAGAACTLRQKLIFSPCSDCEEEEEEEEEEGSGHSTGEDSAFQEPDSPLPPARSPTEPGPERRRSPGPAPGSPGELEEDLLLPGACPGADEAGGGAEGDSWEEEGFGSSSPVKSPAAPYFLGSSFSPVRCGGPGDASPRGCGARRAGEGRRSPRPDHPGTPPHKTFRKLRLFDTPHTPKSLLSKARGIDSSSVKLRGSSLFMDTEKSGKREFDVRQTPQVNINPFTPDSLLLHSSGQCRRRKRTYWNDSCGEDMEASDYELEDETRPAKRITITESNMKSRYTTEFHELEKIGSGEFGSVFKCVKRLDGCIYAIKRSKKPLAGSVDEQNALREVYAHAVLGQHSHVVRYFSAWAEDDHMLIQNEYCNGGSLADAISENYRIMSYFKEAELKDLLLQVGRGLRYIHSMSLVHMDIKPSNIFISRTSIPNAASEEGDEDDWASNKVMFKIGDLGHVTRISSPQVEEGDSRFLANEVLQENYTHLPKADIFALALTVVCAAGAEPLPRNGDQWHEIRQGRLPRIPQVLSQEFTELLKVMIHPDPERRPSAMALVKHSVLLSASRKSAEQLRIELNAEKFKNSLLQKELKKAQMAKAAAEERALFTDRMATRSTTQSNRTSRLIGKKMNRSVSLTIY

CC1Oc2nc(Nc3ccc4c(c3)CCNC4(C)C)ncc2C(=O)N1c1c(Cl)cccc1Cl (stereo not drawn) [1.4, 3-(2,6-dichlorophenyl)-7-((1,1-dimethyl-1,2,3,4-tetrahydroisoquinolin-6-yl)amino)-2-methyl-2,3-dihydro-4H-pyrimido[5,4-e][1,3]oxazin-4-one]
IC50 (WEE1 kinase enzyme): 0.127 µM
IC50 (As-Pc-1; ASPC1, As-Pc-1 cells, 72 hr incubation, inhibition of proliferation): 8.5 µM
IC50 (U-87 MG; U-87 MG cells, 72 hr incubation, inhibition of proliferation): 10.9 µM

CC1Oc2nc(Nc3ccc4c(c3)CNCC4)ncc2C(=O)N1c1c(Cl)cccc1Cl (stereo not drawn) [1.44, 3-(2,6-dichlorophenyl)-2-methyl-7-((1,2,3,4-tetrahydroisoquinolin-7-yl)amino)-2,3-dihydro-4H-pyrimido[5,4-e][1,3]oxazin-4-one]
IC50 (WEE1 kinase enzyme): 0.133 µM
IC50 (As-Pc-1; ASPC1, 72 h): 19.5 µM
IC50 (U-87 MG; U-87 MG, 72 h): 11.4 µM

Source: patent US20220162229A1, “HETEROCYCLIC COMPOUNDS AND USES THEREOF” (Nuvation Bio Inc., priority 2019, published 2022)
